# In PMC10716264 (Frontiers in Medicine, 2023):
# Read-outs that look alike come from different tables or passages of the source.
# Tests used:
# SARS-CoV-2 3CLpro = SARS-CoV-2 3CLpro (Severe acute respiratory syndrome coronavirus 2, UniProt P0DTD1); test: biochemical
# [1] = system: SARS-CoV-2 (2019-nCoV-WIV04); test: microbe, parasite or virus in culture; assay type: cell-based; conditions: read-out: EC50 against SARS-CoV-2 virus
# [2] = system: influenza A/California/07/09 (H1N1) strain; test: microbe, parasite or virus in culture; assay type: cell-based; conditions: read-out: EC50 (effective 50% concentration), MDCK cells
# [3] = parameters: method as in earlier work; conditions: co-administration with ritonavir; cited from earlier work
# [4] = molecular target: SARS-CoV-2 RdRp complex (nsp12-nsp7-nsp8) (Severe acute respiratory syndrome coronavirus 2, UniProt P0DTD1); assay type: biochemical
# COVID-19 = system: COVID-19; parameters: method as in PMID 32568613; conditions: unvaccinated symptomatic adults, Nirmatrelvir-based therapy; cited from earlier work
# [5] = Severe acute respiratory syndrome coronavirus 2, Vero C1008, 24 h
compound,measurement,setting,value
"2,4-bis-O-galloyl-1,3,6-tri-O-galloyl-β-D-glucose [R-7]",IC50,SARS-CoV-2 3CLpro,9.84 µM
same,EC50,[1],17.5 µM
NC(=O)c1nc(F)c[nH]c1=O [Favipiravir],EC50,[2],24 µM
Cc1cccc(C)c1OCC(=O)N[C@@H](Cc1ccccc1)[C@@H](O)C[C@H](Cc1ccccc1)NC(=O)[C@H](C(C)C)N1CCCNC1=O [Lopinavir],increase of area under the plasma concentration-time curve,[3],more than 100 times
O=c1c(O)c(-c2cc(O)c(O)c(O)c2)oc2cc(O)cc(O)c12 [Myricetin],formation of the RdRp-RNA complex,[4]; 250 μM,completely blocked
same,inhibition of primer elongation,"[4]; gel assay, compared with Rutan",showed inhibitory activity in higher concentrations
CC(C)(C)[C@H](NC(=O)C(F)(F)F)C(=O)N1C[C@H]2[C@@H]([C@H]1C(=O)N[C@H](C#N)C[C@@H]1CCNC1=O)C2(C)C [Nirmatrelvir],reduction of the risk of severe complications following COVID-19 infection,COVID-19,89%
"O=C(OC[C@H]1O[C@@H](OC(=O)c2cc(O)c(O)c(O)c2)[C@H](OC(=O)c2cc(O)c(O)c(O)c2)[C@@H](OC(=O)c2cc(O)c(O)c(O)c2)[C@@H]1OC(=O)c1cc(O)c(O)c(O)c1)c1cc(O)c(O)c(O)c1 [R-5, 1,2,3,4,6-penta-O-galloyl-β-D-glucose]",EC50,[1]; [5],7.49 µM
"O=C(OC[C@H]1O[C@@H](OC(=O)c2cc(O)c(O)c(O)c2)[C@H](OC(=O)c2cc(O)c(O)c(O)c2)[C@@H](OC(=O)c2cc(O)c(O)c(OC(=O)c3cc(O)c(O)c(O)c3)c2)[C@@H]1OC(=O)c1cc(O)c(O)c(O)c1)c1cc(O)c(O)c(O)c1 [R-6, 3-bis-O-galloyl-1,2,4,6-tetra-O-galloyl-β-D-glucose]",IC50,SARS-CoV-2 3CLpro,9.92 µM
same,EC50,"[1]; Severe acute respiratory syndrome coronavirus 2, Vero C1008, Vero E6 cells, MOI 0.01, 24 h post-infection, viral copies by qRT-PCR",5.95 µM
"O=C(OC[C@H]1O[C@@H](OC(=O)c2cc(O)c(O)c(O)c2)[C@H](OC(=O)c2cc(O)c(O)c(OC(=O)c3cc(O)c(O)c(O)c3)c2)[C@@H](OC(=O)c2cc(O)c(O)c(OC(=O)c3cc(O)c(O)c(O)c3)c2)[C@@H]1OC(=O)c1cc(O)c(O)c(OC(=O)c2cc(O)c(O)c(O)c2)c1)c1cc(O)c(O)c(O)c1 [R-8, 2,3,4-bis-O-galloyl-1,6-di-O-galloyl-β-D-glucose]",IC50,SARS-CoV-2 3CLpro; Rutan and components (Figure 4),1.34 µM
CCC(CC)COC(=O)[C@H](C)N[P@](=O)(OC[C@H]1O[C@@](C#N)(c2ccc3c(N)ncnn23)[C@H](O)[C@@H]1O)Oc1ccccc1 [Remdesivir],EC50,[1]; [5],2 µM
